One data set has as its system Male BALB/c mice. Nature of the data set: Locomotor activity in mice. The data set is classed as in vivo, mouse. The note with it: ip. How it is done: Male BALB/c mice approximately 8 to 10 weeks old (18-25 grams) served as subjects in the locomotor activity and light/dark assays. Animals were housed in groups of four on a 14 hour light/10 hour dark cycle and were given free access to food and water. All experiments were conducted during the animals' light cycle (0800-1700).
Behavioral testing was conducted in an illuminated open field chamber (11.0″×11.0″; Med Associates MED-OFA-510) equipped with infrared beams and sensors which was placed in a sound attenuating cubicle. Horizontal locomotor activity was measured by recording the total number of beams crossed in a 60 minute period. Anxiolytic-like behavior was assessed using the same chambers with the addition of a Plexiglas insert that is opaque to visible light creating separate darkened and illuminated sides (5.5″×11.0″) of the chamber. An opening in the middle of the dark insert allowed the animals to move freely between each side of the chamber. Animals were place in the center of the illuminated side of the chamber and allowed to freely explore for 10 minutes. The amount of time (sec) that the animals spent in each side of the chamber was recorded. Data were analyzed using one-way analysis of variance and Bonferroni t-tests.
Vehicle and doses of SH-053-S—CH3 8 (10.0-100.0 mg/kg) and SH-053-R-CH3 29 (56.0 mg/kg) were tested in the light/dark and locomotor activity assays. All drugs were administered intraperitoneally (ip) 30 minutes before each test in volumes of approximately 1 ml/kg. Drugs were dissolved in varying amounts of 95% ethanol (5-10%), propylene glycol and sterile water and diluted to the desired concentration with a solution of 50% propylene glycol and 50% sterile water.

The next data set relates to male Wistar rats. Nature of the data set: Elevated plus-maze in rats. The data set is classed as in vivo, rat. The settings on record: for Open Entries / Closed Entries / Total Distance Travelled (m) / Total Entries / % Open Time / % Open Entries / Time in open arms / Time in closed arms: rats, mean; for Open Entries: SOLVENT mean 2.57; for Closed Entries: SOLVENT mean 7.14; for Total Distance Travelled (m): SOLVENT mean 9.30; for Total Entries: SOLVENT mean 9.71; for % Open Time: SOLVENT mean 20.43; for % Open Entries: SOLVENT mean 25.57; for Time in open arms: SOLVENT mean 50.29; for Time in closed arms: SOLVENT mean 196.29. How it is done:
Except where noted, the methods used were those of Miroslav M., et al., (2004) Pharmacology, Biochemistry and Behavior 79: 279-290. Experiments were carried out on male Wistar rats (Military Farm, Belgrade, Serbia and Montenegro), weighing 200-240 g. All procedures in the study conformed to EEC Directive 86/609 and were approved by the Ethical Committee on Animal Experimentation of the Medical Faculty in Belgrade. The rats were housed in transparent plastic cages, six animals per cage, and had free access to pelleted food and tap water before and after drug administration. The temperature of the animal room was 22±1° C., the relative humidity 40-70%, the illumination 120 1× and the 12/12-h light/dark period (light on at 06:00 h). All handling and testing took place during the light portion of the cycle. Throughout the study the animals were used only once.
Midazolam and flumazenil were generously donated from F. Hoffman-La Roche (Basel, Switzerland). Zolpidem was purchased from Toronto Research Chemicals (North York, Canada) and DMCM from Research Biochemicals (Natick, Mass., USA). All drugs were dissolved/suspended with the aid of sonication in a solvent containing 85% distilled water, 14% propylene glycol and 1% Tween 80™, and were administered intraperitoneally, in a volume of 1 ml/kg, 20 min before testing. Doses are expressed as the base forms of the drugs. In the cases of combined treatment, agonists were administered at separate sites, immediately after the antagonist. Each animal received a total volume of 2 ml/kg of compounds tested or appropriate vehicles, at two different injection sites.
The test apparatus was constructed of sheet metal, with a black rubber floor. It consisted of a maze elevated to a height of 50 cm with two open (50×10 cm) and two enclosed arms (50×10×40 cm), connected by junction area (central platform) measured 10×10 cm. Although the floor was rubberized, a ledge of sheet metal (0.3 cm high) surrounding the open arms was added, to avoid rats falling off. The illumination in the experimental room consisted of one red neon tube fixed on the ceiling, giving light intensity of 10 1× on the surface of the arms. The experiments were carried out during the diurnal phase (between 08:00 and 12:00 h). At the beginning of the experiment, rats were placed in the centre of the maze, facing one of the enclosed arms and observed for 5 min. The observer sat in the same room 1 m from the maze. After each trial, the maze was cleaned with dry and wet towels. Throughout the study, the number of rats per treatment group was 8-14. Each experiment was run over 4 consecutive days, with three control rats per day; as there was no difference in plus-maze activity among control subgroups, they were pooled in a single control group (n=12).
All numerical data presented in the figures were given as the mean±S.E.M. Each dose-response curve (agonist or antagonist alone or agonist+antagonist) was assessed by a one-way ANOVA. If the ANOVA was significant, each treatment condition was compared with the appropriate solvent control by a Dunnett's test (a=0.05). In case of significant effect in the number of enclosed arm entries, an analysis of covariance (ANCOVA) was performed in the anxiety-related parameters using the number of enclosed arm entries as covariate. Interactions between the agonists and antagonists were analyzed separately with a two-way ANOVA [factors: agonist dose versus cotreatment (an antagonist or saline)]; pairwise comparisons for the assessment of the antagonist influence on the agonist effects were conducted by Tukey's test, one of the methods recommended even in the absence of an overall significant F-test (Wilcox R R. New designs in analysis of variance. Annu Rev Psychol 1987; 38: 29-60). Statistical analyses were performed with commercial statistical software for PC, Stat for Windows R. 5.0.

Where [1] appears, read: SH-053-S 20 mg/kg ip, N 6, t test p = 0.668.
Setting [2] is: SH-053-S 30 mg/kg ip, N 7, t test p ≦ 0.05.

Turning to `C#Cc1ccc2c(c1)C(c1ccccc1)=NC(C)c1c(C(=O)OCC)ncn1-2` (stereo not drawn) [SH-053-S—CH3, 8-Ethynyl-4-methyl-6-phenyl-4H-2,5,10b-triaza-benzo[e]azulene-3-carboxylic acid ethyl ester], the locomotor activity entry was “did not suppress locomotor activity” with Male BALB/c mice (56 mg/kg), “did not suppress locomotor activity in any significant fashion” in the data set on Male BALB/c mice (100 mg/kg) and “No effects on locomotor activity were observed” in the data set with Male BALB/c mice (FIG. 2 B). Moreover, the “Open Entries” value in the data set on male Wistar rats (setting [1]) is 3.00; in the data set on male Wistar rats (setting [2]), 4.57. In addition, the “Closed Entries” value with male Wistar rats (SH-053-S 20 mg/kg ip, N 6, t test p = 0.059) came out at 5.33; with male Wistar rats (SH-053-S 30 mg/kg ip, N 7, t test p = 0.481) it was 6.29. The “Total Distance Travelled (m)” value is recorded as 7.49 m in the data set on male Wistar rats (SH-053-S 20 mg/kg ip, N 6, t test p = 0.145) and 9.48 m in the data set on male Wistar rats (SH-053-S 30 mg/kg ip, N 7, t test p = 0.910). For the same compound, the “Total Entries” value is given as 8.33 in the data set on male Wistar rats (SH-053-S 20 mg/kg ip, N 6, t test p = 0.349) and 10.86 in the data set with male Wistar rats (SH-053-S 30 mg/kg ip, N 7, t test p = 0.525). The “% Open Time” value was 27.50% with male Wistar rats (SH-053-S 20 mg/kg ip, N 6, t test p = 0.426) and 36.00% in the data set on male Wistar rats (setting [2]). The “% Open Entries” value in the data set on male Wistar rats (SH-053-S 20 mg/kg ip, N 6, t test p = 0.265) came to 34.17%; with male Wistar rats (setting [2]) it was 43.71%. Further, the “Time in open arms” value in the data set with male Wistar rats (setting [1]) turned out to be 61.83; in the data set on male Wistar rats (setting [2]), 93.71. The “Time in closed arms” value worked out at 144.67 in the data set on male Wistar rats (SH-053-S 20 mg/kg ip, N 6, t test p ≦ 0.05) and 164.71 with male Wistar rats (SH-053-S 30 mg/kg ip, N 7, t test p = 0.116). Also, the “effects on locomotor activity (summary of FIG. 1, FIG. 2, Tables 3-6)” value in the data set on male Wistar rats (at the dose tested) is “no measurable effects on locomotor activity”. The “anxiolytic activity (summary of FIG. 1, FIG. 2, Tables 3-6)” value with male Wistar rats (rat, in vivo) is listed as “has anxiolytic activity”.

For the origin of these results see patent publication US7618958B2, “Stereospecific anxiolytic and anticonvulsant agents with reduced muscle-relaxant, sedative-hypnotic and ataxic effects” (WISYS Technology Foundation, Inc., priority 2004, dated 2009).
